The values that follow come from patent publication US12370183B2, “Compositions and methods for treating malaria” (Rutgers, The State University of New Jersey, priority 2020, dated 2025).

One may read the IC50 as the concentration at which inhibition is half-maximal. As a reminder, the EC50 is the midpoint of the concentration-response curve.

The test system of data set [1] is Proguanil resistant attB Pf Dd2. Nature of the data set: P. falciparum (Dd2 strain) asexual blood stage assay, proguanil resistant attB. Conditions: for IC50: Plasmodium falciparum, DD2, 72 h, read-out: Proguanil resistant attB Pf Dd2 IC50 (uM). It counts as cell-based, Plasmodium falciparum. How it is done: Assays using human blood cells infected with Plasmodium falciparum: (Pf) parasites, both wild-type strains as well as mutant drug-resistant strains, were performed as described below. Wild-type strains used were aatB Pf (Dd2 strain) and Pf (Dd2 strain). Mutant strains used were proguanil resistant attb Pf (Dd2 strain), dihydroorotate dehydrogenase (DHODH) deficient aatB Pf (Dd2 strain), and DHODH deficient and proguanil resistant Pf (Dd2 strain).
2008 Jul. 1; 105(26):9059-64.
Parasitemia was estimated by blood smear Giemsa stain and visual inspection under the microscopic.
The screening plate was prepared by centrifuging for parasite culture for 5 min at 800×g at RT (low brake) and removing supernatant. A parasite suspension was prepared with 0.3% parasitemia and 4% hematocrit in screening medium (SM). The suspension was gassed with a gas mixture of 1% oxygen, 3% carbon dioxide, 96% nitrogen and stored at 37° C. for until ready to use. 50 nl of 1 mM compound in DMSO was prespotted into 1536 well plates (final drug conc. of 12.5 μM, final DMSO conc. of 0.625%) with the acoustic dispenser ATS. Controls were Artemisinin, Chloroquine, and DMSO. 8 μl of SM was dispensed into 1,536-well, black, clear-bottom plates (Greiner) using the MultiFlo™ Microplate dispenser (BioTek) (final parasitemia of 0.3% and 2.5% hematocrit in SM). The plates were incubated at 37° C. for 72 h with water-soaked tissue in a closed ziploc bag gassed with 1% oxygen, 3% carbon dioxide, 96% nitrogen.
2 μl of detection reagent mixture (10×SYBR Green I (Invitrogen) in Lysis buffer (20 mM Tris/HCl, 5 mM EDTA, 0.16% Saponin wt/vol, 1.6% Triton X vol/vol) was added. Assay plates were read from the bottom by using the 2104 EnVision® Multilabel Reader (PerkinElmer) (485 nm excitation, 530 nm emission). The results are presented in Table 5 below.

A short description of data set [2]: Stability of the pyrrolinone to acid followed by H-1 NMR. It is filed as physicochemical. Conditions: methanol-D4, deuterated acetic acid dropwise; reversed by sodium hydride. The procedure: Without wishing to be bound by any particular theory or mechanism of action, it can be contemplated that the unique aminal structure of the pyrrolinones imparts specific chemical behavior. Aminals are normally unstable functionalities that are prone to hydrolysis. To test the stability of the […], a solution of 177 in methanol-D4 was treated dropwise with deuterated acetic acid. The experiment was followed by H-1 NMR analysis by observing the reduction of the peaks at 6.12 ppm and 8.73 ppm and the appearance of a peak at 9.42. […] Basifying the solution with sodium hydride returns the mixture to pyrrolinone.

Data set [3] concerns resistant P. falciparum variant K1. Nature of the data set: Potency against resistant P. falciparum variant K1 (EC50). It is filed as cell-based. Conditions: Plasmodium falciparum.

Read-outs that look alike come from different tables or passages of the source.

`O=C1c2c3c(nc4ccccc24)CCN(Cc2ccccc2)C3N1c1ccc(F)c(F)c1` (stereo not drawn) [Compound 177, 3-Benzyl-2-(3,4-difluorophenyl)-2a,3,4,5-tetrahydrobenzo[b]pyrrolo[4,3,2-de][1,6]naphthyridin-1(2H)-one]: in data set [1], the IC50 was found to be 0.0113 µM. In addition, in data set [1] (in words), the “potency against a proguanil resistant attB mutant strain” value is “undiminished potency”. In addition, the “stability to acid, in words” value in data set [2] is “Acidification causes the compound to begin conversion into another substance”.

As to `O=C(Nc1ccc(F)c(F)c1)c1c2c(nc3ccccc13)CCN(Cc1ccccc1)C2` [Compound 66, 2-Benzyl-N-(3,4-difluorophenyl)-1,2,3,4-tetrahydrobenzo[b][1,6]naphthyridine-10-carboxamide], the EC50 came to 0.0108 µM in data set [3] (K1, read-out: K1 EC50) and 0.279 µM in data set [3] (K1, read-out: K1 EC50 (μM)). For the same compound, the IC50 in data set [1] is 0.0699 µM.
